Source: patent publication US4556660A, “N-(Bicyclic heterocyclyl)-4-piperidinamines” (Janssen Pharmaceutica N.V., priority 1983, dated 1985)

system: serotonin; compound 48/80-induced gastric lesions; assay: Antagonistic activity on the effects of serotonin in the gastric lesion test (lesions induced by compound 48/80); format: in vivo, Male rats of a Wistar inbred strain; conditions: Rattus norvegicus, po, read-out: gastric lesion test ED50

Row | SMILES | ED50 [mg/kg]
1 | Cc1ccc(Cn2c(NC3CCN(CCNc4ccc(Br)cn4)CC3)nc3ccccc32)cc1 [Compound 51] | 0.08

system: compound 48/80-induced lethality; assay: Protection of rats from compound 48/80-induced lethality; format: in vivo, Male rats of an inbred Wistar strain; conditions: Rattus norvegicus, 4 h, read-out: compound 48/80 lethality test rats-ED50

Row | SMILES | ED50 [mg/kg]
2 | Cc1ccc(Cn2c(NC3CCN(CCNc4ccc(Br)cn4)CC3)nc3ccccc32)cc1 [Compound 51] | 0.02

system: compound 48/80-induced cyanosis, lesions in the glandular area of the stomach and abnormal gastric distension; assay: not given; conditions: rats injected with compound 48/80; cited from earlier work

Row | SMILES | prevention of cyanosis of ears and extremities, lesions in the glandular area of the stomach and abnormal gastric distension
3 | CN(C)CCCSc1ccccc1NC(=O)/C=C/c1ccccc1 [cinanserin] | prevent completely
4 | CN1CCC(=C2c3ccccc3CCc3sccc32)CC1 [pizotifen] | prevent completely
5 | CN1CCN2c3ccccc3Cc3ccccc3C2C1 (stereo not shown) [mianserin] | prevent completely
6 | O=C(CCCN1CCC2(CC1)C(=O)NCN2c1ccccc1)c1ccc(F)cc1 [spiperone] | prevent completely
7 | CC[C@@H](CO)NC(=O)[C@@H]1C=C2c3cccc4c3c(cn4C)C[C@H]2N(C)C1 [methysergide] | prevent completely
8 | CN1CCC(=C2c3ccccc3C=Cc3ccccc32)CC1 [cyproheptadine] | prevent completely
9 | NC(=O)C1(N2CCCCC2)CCN(CCCC(=O)c2ccc(F)cc2)CC1 [pipamperone] | prevent completely
10 | CN1C[C@H](CNC(=O)OCc2ccccc2)C[C@@H]2c3cccc4c3c(cn4C)C[C@H]21 [metergoline] | prevent completely
